Test results as given in ChEMBL document CHEMBL1201862, “PubChem BioAssay data set” (2004).
The source made the active and inactive calls.

Key:
[1] = inhibitors of intracellular T. cruzi replication, confirmation, NIH3T3 host cells, beta-gal luminescence (AID 2044); format: functional, cell-based;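 note: intracellular parasites grown in NIH/3T3 mouse fibroblasts as host cells; luminescent beta-galactosidase reporter signal from transgenic T. cruzi replicating inside host cells; inhibitors lower the luminescence signal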
[2] = cytotoxicity toward NIH3T3 fibroblasts, dose response, counter-screen, cell-based, ATP luminescence, mouse fibroblasts (AID 2010); format: functional;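 note: cells exposed to compound for about 90 hours before reading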
[3] = molecular target: T1, Short transient receptor potential channel 4 (Mus musculus, UniProt Q9QUQ5); experiment: mouse TRPC4 channel activators, dose response, cell-based, HEK293 TRPC4/mu-opioid, Fluo-4 calcium (AID 434937); format: functional
T1 sequence (Q9QUQ5 whole entry): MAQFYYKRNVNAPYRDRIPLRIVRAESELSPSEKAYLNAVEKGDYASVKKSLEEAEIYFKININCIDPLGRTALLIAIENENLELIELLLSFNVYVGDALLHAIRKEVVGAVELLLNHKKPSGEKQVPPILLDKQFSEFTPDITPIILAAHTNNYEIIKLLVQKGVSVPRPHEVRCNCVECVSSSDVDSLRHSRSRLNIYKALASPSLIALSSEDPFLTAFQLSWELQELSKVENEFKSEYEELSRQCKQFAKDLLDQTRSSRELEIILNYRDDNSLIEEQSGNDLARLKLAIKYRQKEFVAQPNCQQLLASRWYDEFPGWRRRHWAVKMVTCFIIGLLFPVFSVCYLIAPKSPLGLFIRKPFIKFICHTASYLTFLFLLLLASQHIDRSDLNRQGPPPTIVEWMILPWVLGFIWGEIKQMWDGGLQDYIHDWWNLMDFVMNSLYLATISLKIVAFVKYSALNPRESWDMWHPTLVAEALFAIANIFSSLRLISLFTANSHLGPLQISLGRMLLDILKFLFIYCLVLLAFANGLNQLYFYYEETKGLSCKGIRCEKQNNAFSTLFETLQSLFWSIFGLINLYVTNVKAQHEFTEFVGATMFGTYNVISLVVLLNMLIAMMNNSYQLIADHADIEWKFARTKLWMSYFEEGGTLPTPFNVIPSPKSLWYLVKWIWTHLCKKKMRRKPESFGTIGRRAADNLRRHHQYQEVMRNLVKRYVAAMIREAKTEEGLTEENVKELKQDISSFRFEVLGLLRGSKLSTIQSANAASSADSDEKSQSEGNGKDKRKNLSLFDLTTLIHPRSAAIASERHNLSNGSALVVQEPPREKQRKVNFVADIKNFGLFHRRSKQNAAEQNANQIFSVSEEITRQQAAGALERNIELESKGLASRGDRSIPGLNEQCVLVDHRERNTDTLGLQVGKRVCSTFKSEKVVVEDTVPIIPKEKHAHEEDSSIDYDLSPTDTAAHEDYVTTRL

[4] = molecular target: Alkaline phosphatase, placental type (Homo sapiens, UniProt P05187); experiment: PLAP enzyme inhibitors, confirmation, biochemical, luminescence (AID 1512); format: functional
[5] = molecular target: T2, Alkaline phosphatase, tissue-nonspecific isozyme (Homo sapiens, UniProt P05186); experiment: human TNAP enzyme inhibitors, SAR follow-up, biochemical, luminescent, dose response (AID 1056)
T2 sequence (P05186 whole entry): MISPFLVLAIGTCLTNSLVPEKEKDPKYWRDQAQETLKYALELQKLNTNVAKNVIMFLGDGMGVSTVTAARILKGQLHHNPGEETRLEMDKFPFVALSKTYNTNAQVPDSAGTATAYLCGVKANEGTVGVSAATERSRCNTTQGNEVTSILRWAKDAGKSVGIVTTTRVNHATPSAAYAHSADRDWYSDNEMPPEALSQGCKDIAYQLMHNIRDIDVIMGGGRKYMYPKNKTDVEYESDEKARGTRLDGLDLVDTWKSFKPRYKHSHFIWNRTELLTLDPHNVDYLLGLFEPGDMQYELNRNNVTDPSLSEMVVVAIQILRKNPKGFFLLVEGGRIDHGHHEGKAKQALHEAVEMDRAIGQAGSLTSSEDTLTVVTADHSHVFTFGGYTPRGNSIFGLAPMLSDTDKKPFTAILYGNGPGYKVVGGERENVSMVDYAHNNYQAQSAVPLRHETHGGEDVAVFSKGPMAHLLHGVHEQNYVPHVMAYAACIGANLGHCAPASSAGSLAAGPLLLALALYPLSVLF

[6] = molecular target: Glyceraldehyde-3-phosphate dehydrogenase (Homo sapiens, UniProt P04406)
[7] = molecular target: Voltage-dependent T-type calcium channel subunit alpha-1H (Homo sapiens, UniProt O95180); format: functional;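 note: channel activity triggered by adding a high calcium stimulation buffer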
[8] = THP-1 cell cytotoxicity, dose response, cytotoxicity control for non-replicating M. tuberculosis project (AID 489025); format: functional
[9] = microbe, parasite or virus in culture; format: functional; details: Mycobacterium tuberculosis
[10] = cells; format: functional
[11] = HepG2 cell cytotoxicity, dose response, cytotoxicity control for non-replicating M. tuberculosis project (AID 489018); format: functional; details: Mycobacterium tuberculosis
[12] = Vero E6 cell cytotoxicity, dose response, cytotoxicity control for non-replicating M. tuberculosis project, secondary assay (AID 492998); format: functional, VeroE6; details: Vero C1008
[13] = Luminescence-based dose response cell-based high throughput screening assay for cytotoxic compounds using the IEC-6 intestinal epithelial cell line. [Related pubchem assays: 1858 (Summary AID.), 1825 (Counterscreen.), 1907 (Confirmation screen.)]; format: functional
[14] = test system: INS1; experiment: beta cell apoptosis inhibitors, cytokine rescue, dose response, luminescence, retest (AID 449756); format: functional, cell-based; details: Rattus norvegicus;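 note: cell death triggered by IL-1 beta plus TNF-alpha plus IFN-gamma mixture; protective hits raise ATP signal compared with cytokine alone wells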
[15] = molecular target: T3, Replicative DNA helicase DnaB (Mycobacterium tuberculosis, UniProt P9WMR3); experiment: DnaB intein splicing inhibitors, dose response, biochemical, cell-free fluorescence (AID 449749); format: functional
T3 sequence (P9WMR3 whole entry): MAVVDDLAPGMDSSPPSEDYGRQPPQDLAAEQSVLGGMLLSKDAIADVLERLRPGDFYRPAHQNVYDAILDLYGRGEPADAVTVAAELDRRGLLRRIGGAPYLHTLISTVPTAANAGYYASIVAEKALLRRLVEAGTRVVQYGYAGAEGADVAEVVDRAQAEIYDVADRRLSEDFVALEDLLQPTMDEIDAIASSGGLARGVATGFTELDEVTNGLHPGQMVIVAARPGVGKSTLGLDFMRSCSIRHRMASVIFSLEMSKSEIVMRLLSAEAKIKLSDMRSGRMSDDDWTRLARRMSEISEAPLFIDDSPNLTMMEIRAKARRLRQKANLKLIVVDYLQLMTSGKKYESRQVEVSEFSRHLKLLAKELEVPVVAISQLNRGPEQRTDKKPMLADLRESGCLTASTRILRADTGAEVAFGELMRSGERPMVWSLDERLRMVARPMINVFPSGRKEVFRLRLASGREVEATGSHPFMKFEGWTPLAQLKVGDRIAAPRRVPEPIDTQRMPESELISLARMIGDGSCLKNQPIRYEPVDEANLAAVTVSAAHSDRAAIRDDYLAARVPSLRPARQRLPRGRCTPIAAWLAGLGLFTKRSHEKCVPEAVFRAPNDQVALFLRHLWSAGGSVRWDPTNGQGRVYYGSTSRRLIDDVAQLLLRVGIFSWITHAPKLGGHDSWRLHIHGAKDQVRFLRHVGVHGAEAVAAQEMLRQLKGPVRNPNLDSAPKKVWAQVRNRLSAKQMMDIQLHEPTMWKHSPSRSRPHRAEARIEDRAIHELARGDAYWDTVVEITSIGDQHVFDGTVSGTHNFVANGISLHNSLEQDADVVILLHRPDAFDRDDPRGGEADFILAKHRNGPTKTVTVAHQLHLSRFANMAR

[16] = inhibitors of firefly luciferase expression or activity, dose response, H4 neuroglioma cells, luminescence (AID 1990); format: functional, cell-based
[17] = cytotoxicity toward DRD oncogenic fibroblasts, dose response, cell-based, non-viral oncogenic, luminescence (AID 1934); format: functional; details: Homo sapiens
[18] = test system: BJ; experiment: cytotoxicity toward BJ-TERT fibroblasts, dose response, cell-based, RAS-independent, luminescence (AID 1933); format: functional; details: Homo sapiens
[19] = inhibitors of SNCA 5'UTR-driven reporter translation, confirmation, H4 neuroglioma cells, luminescence (AID 1988); format: functional, cell-based
[20] = test system: BJ; experiment: cytotoxicity toward Ras-transformed BJeLR fibroblasts, dose response, cell-based, alamar blue fluorescence, cherrypicked samples (AID 2631); format: functional; details: Homo sapiens;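 note: confirmatory dose-response assay in RAS-dependent BJ fibroblasts engineered with TERT, LT and ST, with cytotoxicity read by fluorescence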
[21] = molecular target: Paired box protein Pax-8 (Homo sapiens, UniProt Q06710); experiment: inhibitors of PAX8-driven TPO luciferase reporter, dose response, RMG-I cells, cherry-pick (AID 687027); format: functional, cell-based;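 note: luciferase reporter driven by Pax8 target thyroperoxidase promoter measured by SteadyGlo luminescence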
[22] = test system: BJ; experiment: cells; format: functional, cell-based; details: Homo sapiens
[23] = Luminescence Cell-Based Dose Response HTS to Identify Inhibitors of 5'UTR Stem-Loop Driven Prion Protein mRNA Translation in H4 Neuroglioblastoma Cells. [Related pubchem assays: 1827 (Project Summary), 1813 (Primary HTS)]; format: functional
[24] = non-specific cell cytotoxicity, dose response, cytotoxicity control for PAX8 inhibitor project, plate reader, dry powder samples (AID 743021); format: functional, cell-based
[25] = test system: BJ; experiment: cytotoxicity toward BJ-TERT-LT-ST fibroblasts, dose response, cell-based, RAS-independent, luminescence (AID 1935); format: functional; details: Homo sapiens;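 note: BJ fibroblasts immortalized with TERT plus LT and ST oncogenes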
[26] = molecular target: T4, Protein RecA (Mycobacterium tuberculosis, UniProt P9WHJ3); experiment: Fluorescence Cell-Free Homogeneous Dose Retest to Identify Inhibitors of RecA-Intein Splicing Activity. [Related pubchem assays (depositor defined):AID2097, AID2223, AID489010, AID492950]; format: functional
T4 sequence (P9WHJ3 whole entry): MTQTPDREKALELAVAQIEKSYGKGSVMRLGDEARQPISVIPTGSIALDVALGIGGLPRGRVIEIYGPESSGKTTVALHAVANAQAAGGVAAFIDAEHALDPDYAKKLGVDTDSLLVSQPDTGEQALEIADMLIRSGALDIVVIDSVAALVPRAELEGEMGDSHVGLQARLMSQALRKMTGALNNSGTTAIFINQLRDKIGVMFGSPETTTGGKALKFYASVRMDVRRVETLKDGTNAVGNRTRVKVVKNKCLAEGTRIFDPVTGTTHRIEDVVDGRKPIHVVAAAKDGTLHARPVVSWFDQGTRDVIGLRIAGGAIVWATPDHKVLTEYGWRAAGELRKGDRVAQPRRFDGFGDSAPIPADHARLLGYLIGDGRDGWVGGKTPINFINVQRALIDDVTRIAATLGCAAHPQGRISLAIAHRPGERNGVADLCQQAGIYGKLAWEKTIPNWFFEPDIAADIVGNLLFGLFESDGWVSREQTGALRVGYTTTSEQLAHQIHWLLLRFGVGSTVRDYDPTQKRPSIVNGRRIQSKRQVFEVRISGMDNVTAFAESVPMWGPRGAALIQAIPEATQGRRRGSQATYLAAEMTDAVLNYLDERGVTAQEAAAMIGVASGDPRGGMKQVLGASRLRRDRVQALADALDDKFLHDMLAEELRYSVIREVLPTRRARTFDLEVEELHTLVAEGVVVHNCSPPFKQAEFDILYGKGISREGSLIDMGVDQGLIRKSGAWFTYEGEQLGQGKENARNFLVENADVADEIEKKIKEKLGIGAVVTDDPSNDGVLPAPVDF

[27] = test system: Vero; experiment: cells; format: functional; details: Chlorocebus sabaeus
[28] = molecular target: DNA dC->dU-editing enzyme APOBEC-3G (Homo sapiens, UniProt Q9HC16); experiment: Dose Response confirmation of small molecule APOBEC3G DNA Deaminase Inhibitors via a fluorescence-based single-stranded DNA deaminase assay. [Related pubchem assays (depositor defined):AID493012, AID493028]; format: functional
Chain of DNA dC->dU-editing enzyme APOBEC-3G (Q9HC16 whole entry): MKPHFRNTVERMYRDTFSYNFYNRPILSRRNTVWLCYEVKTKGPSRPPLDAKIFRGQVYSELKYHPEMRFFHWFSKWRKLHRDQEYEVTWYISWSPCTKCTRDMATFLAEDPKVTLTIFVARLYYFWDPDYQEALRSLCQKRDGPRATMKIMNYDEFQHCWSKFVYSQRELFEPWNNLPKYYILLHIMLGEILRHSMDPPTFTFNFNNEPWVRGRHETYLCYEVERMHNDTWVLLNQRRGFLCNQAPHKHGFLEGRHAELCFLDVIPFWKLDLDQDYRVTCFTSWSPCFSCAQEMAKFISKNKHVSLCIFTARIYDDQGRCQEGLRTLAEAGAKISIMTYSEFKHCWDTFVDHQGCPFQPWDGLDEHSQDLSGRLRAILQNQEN

Chain of Glyceraldehyde-3-phosphate dehydrogenase (P04406 whole entry): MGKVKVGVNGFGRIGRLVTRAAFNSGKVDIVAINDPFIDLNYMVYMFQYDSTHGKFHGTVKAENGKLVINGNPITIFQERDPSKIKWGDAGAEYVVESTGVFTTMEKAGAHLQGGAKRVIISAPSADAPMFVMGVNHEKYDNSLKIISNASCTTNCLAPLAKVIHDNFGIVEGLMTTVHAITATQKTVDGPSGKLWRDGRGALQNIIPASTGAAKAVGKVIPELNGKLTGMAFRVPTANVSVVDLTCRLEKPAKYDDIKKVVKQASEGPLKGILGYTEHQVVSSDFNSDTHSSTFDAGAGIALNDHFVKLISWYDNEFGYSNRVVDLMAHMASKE
Chain of Alkaline phosphatase, placental type (P05187 whole entry): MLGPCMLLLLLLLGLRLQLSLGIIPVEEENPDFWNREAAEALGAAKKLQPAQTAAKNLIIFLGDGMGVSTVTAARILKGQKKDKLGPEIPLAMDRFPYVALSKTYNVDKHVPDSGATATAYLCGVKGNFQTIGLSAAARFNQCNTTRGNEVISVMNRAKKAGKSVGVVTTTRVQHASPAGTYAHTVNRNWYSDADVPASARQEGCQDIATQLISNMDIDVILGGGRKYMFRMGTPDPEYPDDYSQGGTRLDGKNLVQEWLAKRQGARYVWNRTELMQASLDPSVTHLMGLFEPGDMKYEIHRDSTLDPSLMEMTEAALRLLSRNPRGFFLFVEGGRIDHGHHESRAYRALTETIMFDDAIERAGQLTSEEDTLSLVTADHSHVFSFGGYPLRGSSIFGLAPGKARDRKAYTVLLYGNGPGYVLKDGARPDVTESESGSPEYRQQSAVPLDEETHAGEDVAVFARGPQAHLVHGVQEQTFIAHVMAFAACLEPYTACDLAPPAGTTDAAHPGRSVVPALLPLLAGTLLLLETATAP
Chain of Voltage-dependent T-type calcium channel subunit alpha-1H (O95180 whole entry): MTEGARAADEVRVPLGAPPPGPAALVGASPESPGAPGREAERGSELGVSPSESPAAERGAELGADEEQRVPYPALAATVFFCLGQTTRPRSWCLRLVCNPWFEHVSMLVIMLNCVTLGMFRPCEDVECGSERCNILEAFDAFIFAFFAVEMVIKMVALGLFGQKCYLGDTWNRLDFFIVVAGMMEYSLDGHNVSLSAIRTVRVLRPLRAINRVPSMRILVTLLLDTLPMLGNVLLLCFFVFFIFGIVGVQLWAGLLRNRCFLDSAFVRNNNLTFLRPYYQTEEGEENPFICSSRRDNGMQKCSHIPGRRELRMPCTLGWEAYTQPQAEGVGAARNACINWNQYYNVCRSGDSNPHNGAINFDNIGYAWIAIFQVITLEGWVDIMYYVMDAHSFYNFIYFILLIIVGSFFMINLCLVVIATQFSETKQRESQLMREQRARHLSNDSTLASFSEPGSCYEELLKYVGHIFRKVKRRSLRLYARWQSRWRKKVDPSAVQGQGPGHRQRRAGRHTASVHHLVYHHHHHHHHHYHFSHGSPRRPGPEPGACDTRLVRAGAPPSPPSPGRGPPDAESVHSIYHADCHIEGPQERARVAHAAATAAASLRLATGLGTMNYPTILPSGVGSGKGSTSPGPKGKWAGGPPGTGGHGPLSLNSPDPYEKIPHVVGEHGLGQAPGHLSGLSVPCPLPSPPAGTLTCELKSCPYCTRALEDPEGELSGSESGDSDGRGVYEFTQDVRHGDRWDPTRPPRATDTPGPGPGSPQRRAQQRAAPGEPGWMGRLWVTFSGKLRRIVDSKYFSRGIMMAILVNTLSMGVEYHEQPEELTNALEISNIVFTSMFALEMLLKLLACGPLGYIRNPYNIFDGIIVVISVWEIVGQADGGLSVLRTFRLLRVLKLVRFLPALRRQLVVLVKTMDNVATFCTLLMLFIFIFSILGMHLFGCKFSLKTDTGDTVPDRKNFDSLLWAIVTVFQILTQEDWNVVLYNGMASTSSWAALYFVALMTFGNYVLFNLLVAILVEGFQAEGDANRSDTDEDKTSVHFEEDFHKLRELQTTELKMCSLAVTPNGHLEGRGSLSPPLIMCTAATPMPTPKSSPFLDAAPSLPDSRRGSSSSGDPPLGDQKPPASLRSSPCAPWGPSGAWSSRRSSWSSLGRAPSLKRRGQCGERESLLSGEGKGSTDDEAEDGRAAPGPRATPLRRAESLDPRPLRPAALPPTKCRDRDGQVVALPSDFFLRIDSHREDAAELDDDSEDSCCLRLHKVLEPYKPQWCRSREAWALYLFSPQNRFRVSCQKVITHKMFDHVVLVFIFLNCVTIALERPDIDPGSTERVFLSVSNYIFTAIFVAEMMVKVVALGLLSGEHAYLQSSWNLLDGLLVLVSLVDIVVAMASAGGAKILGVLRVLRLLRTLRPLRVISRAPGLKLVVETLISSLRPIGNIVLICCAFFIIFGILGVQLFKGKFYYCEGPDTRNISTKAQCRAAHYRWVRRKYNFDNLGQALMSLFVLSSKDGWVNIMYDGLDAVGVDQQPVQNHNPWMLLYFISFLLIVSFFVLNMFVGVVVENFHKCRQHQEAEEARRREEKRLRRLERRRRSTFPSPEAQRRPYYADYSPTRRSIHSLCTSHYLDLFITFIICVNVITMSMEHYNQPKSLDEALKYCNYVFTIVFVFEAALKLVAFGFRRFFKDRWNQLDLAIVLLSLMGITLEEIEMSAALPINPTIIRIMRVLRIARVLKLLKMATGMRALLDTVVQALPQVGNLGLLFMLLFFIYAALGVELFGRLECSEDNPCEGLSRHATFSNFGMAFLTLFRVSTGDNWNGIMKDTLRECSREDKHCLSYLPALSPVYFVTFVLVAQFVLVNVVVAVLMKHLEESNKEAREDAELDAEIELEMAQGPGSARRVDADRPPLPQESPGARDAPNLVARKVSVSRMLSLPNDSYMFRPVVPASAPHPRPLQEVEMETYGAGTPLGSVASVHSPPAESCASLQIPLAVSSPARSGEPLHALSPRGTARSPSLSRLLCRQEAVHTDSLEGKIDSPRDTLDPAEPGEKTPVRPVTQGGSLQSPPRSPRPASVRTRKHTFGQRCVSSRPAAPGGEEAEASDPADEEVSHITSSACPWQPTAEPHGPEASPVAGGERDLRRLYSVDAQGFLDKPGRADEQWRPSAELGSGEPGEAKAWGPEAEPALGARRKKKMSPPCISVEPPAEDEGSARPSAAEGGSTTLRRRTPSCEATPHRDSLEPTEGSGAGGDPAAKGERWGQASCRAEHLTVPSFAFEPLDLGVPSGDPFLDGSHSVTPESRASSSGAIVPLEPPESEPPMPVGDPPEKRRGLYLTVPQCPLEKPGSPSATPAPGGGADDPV
Chain of Paired box protein Pax-8 (Q06710 whole entry): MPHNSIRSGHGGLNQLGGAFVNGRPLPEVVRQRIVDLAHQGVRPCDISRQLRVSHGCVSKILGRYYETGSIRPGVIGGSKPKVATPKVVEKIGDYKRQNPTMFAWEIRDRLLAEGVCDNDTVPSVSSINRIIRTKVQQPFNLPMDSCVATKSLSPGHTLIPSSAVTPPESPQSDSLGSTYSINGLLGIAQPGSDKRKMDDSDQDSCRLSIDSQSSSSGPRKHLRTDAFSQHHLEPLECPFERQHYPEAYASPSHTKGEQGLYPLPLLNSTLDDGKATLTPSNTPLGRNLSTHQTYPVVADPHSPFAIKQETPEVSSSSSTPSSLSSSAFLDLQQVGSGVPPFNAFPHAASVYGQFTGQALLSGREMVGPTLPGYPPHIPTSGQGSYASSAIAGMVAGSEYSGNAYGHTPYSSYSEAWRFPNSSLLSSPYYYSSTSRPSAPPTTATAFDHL

SMILES: CCN1CCN(c2ccc(S(=O)(=O)N3CCCCC3)cc2NC(=O)COc2ccccc2)CC1
- EC50 [1]: 1.01 µM (active)
- EC50 [2]: > 60 µM (not active)
- EC50 [3]: 6.68 µM (active)

SMILES: CC1(C)CC(=O)c2c(-c3cccc(Br)c3)n[nH]c2C1
- IC50 [4]: > 100 µM (inactive)
- IC50 [5]: > 100 µM (inactive)
- IC50 [6]: > 100 µM (not active)

SMILES: O=C(CSc1nnc(-c2ccccc2Cl)[nH]1)c1ccc(O)c(O)c1
- IC50 [4]: 8.15 µM (active)
- IC50 [5]: 1.36 µM (active)
- IC50 [6]: > 100 µM (not active)

SMILES: Cc1ccc(C(=O)Nc2ccc3c(c2)OCO3)cc1S(=O)(=O)N1CCCCC1
- EC50 [7]: 4.78 µM (active)

SMILES: CN1CC=C(/C=C/c2ccc(-c3ccccc3)cc2)CC1
- CC50 [8]: 23.7 µM (active)
- CC50 [9]: 8.12 µM (active)
- EC50 [1]: 2.12 µM (active)
- EC50 [2]: 8.86 µM (active)
- IC50 [10]: 26.6 µM (active)
- CC50 [11]: 12 µM (active)
- CC50 [12]: 9.99 µM (active)

SMILES: COc1ccc(C2C(O)C(c3c[nH]c4ccccc34)=NN2C(=O)CCl)cc1 (stereo not drawn)
- IC50 [13]: 1.49 µM (active)
- AC50 [14]: 2.19 µM (active)
- AC50 [15]: 2.56 µM (active)
- EC50 [16]: > 30 µM (not active)
- EC50 [17]: 1.37 µM (inconclusive)
- EC50 [18]: 0.622 µM (inconclusive)
- EC50 [19]: 8.2 µM (active)
- EC50 [20]: 0.443 µM (active)
- AC50 [21]: 0.65 µM (active)
- EC50 [22]: 2.65 µM (inconclusive)
- EC50 [23]: 11.1 µM (active)
- AC50 [24]: 0.954 µM (active)
- EC50 [25]: 1.13 µM (inconclusive)
- EC50 [26]: 0.582 µM (active)

SMILES: Cc1cc(C)cc(NC(=S)N2CCN(c3ncc(C(F)(F)F)cc3Cl)CC2)c1
- EC50 [3]: 2.66 µM (active)

SMILES: O=C(c1cc(-c2cc(F)c(Cl)cc2Cl)n[nH]1)N1CCCCCC1
- IC50 [4]: > 100 µM (inactive)
- IC50 [5]: > 100 µM (inactive)
- IC50 [6]: > 100 µM (not active)

SMILES: CCN(CCNC(=O)CS(=O)(=O)Cc1nc(-c2cccc(OC)c2)oc1C)c1ccccc1
- EC50 [7]: 1.49 µM (active)

SMILES: Cc1cc(Nc2ccccc2)n(-c2ccc(Br)cc2)n1
- EC50 [7]: 2.24 µM (active)

SMILES: Cc1ccc(C(=O)NNC(=S)NC(=O)COc2ccccc2)cc1
- CC50 [27]: > 25 µM (active)
- IC50 [28]: 36.3 µM (active)
- EC50 [3]: 1.5 µM (active)

SMILES: CC(/C=C\C=C\c1ccccc1)=N\NC(=O)c1cncc(Br)c1
- CC50 [8]: 35 µM (active)
- IC50 [10]: 12 µM (active)
- CC50 [11]: > 20 µM (active)
